According to patent US9421187B2, “Phytocannabinoids for use in the treatment of intestinal inflammatory diseases” (GW Pharma Limited, priority 2011, dated 2016):
Entries after “also recorded” stand apart in the source; their conditions may differ.

How the values were obtained:
[1] = tested on: mouse peritoneal macrophages; assay: Cytotoxicity assays (MTT cell respiration and neutral red uptake); format: cell-based; conditions: isolated phytocannabinoids, 24 hours incubation, highest 10 μM concentration, FIG. 1
Method: (§1) Peritoneal macrophages were obtained from mice as previously described by Rossi et al. (Rossi et al. 2010). Briefly, to evoke the production of peritoneal exudates rich in macrophages, mice were injected intraperitoneally (i.p.) with 1 ml of 10% sterile thioglycollate (Sigma, Milan, Italy). After 4 days, mice were euthanized and peritoneal macrophages were collected and seeded in appropriate plates for performing in vitro experiments.
Peritoneal macrophages were cultured in Dulbecco's modified Eagle's medium (DMEM) supplemented with 10% fetal bovine serum. The inflammatory response in peritoneal macrophages was induced by lipopolysaccharide (LPS) from Escherichia coli serotype 0111:B4 (1 μg/ml). The response in macrophages was measured after 18 h LPS incubation.
Cell viability was assessed by evaluating cell respiration as well as neutral red (NR) uptake. Cell respiration was assessed by the mitochondrial-dependent reduction of 3-(4,5-dimethylthiazol-2-yl)-2,5-diphenyltetrazolium bromide (MTT) to formazan. After incubation with one of the phytocannabinoids for 24 hours, macrophages (1×10^5 cells per well seeded in a 96-well plate) were incubated with MTT (250 μg/ml) for 1 h.
The extent of reduction of MTT to formazan was quantitated by measuring the optical density at 490 nm (iMark™ microplate assorbance reader, BioRad). […]

[2] = tested on: LPS-stimulated nitrite levels in mouse peritoneal macrophages; assay: Nitrites measurement in medium of LPS-stimulated macrophages; format: cell-based; conditions: non-cytotoxic concentrations (0.1-10 pM), 30 min pre-treatment, then LPS 1 μg/ml 18 hours, FIG. 3 and 4
Method: as §1, with “Briefly,” for “Peritoneal macrophages were obtained from mice as previously described by Rossi et al. (Rossi et al. 2010). Briefly,”
Peritoneal macrophages were cultured in Dulbecco's modified Eagle's medium (DMEM) supplemented with 10% fetal bovine serum. […] The response in macrophages was measured after 18 h LPS incubation.
Nitrites, stable metabolites of NO, were measured in macrophages medium as previously described. Macrophages (5×10^5 cells per well seeded in a 24-well plate) were incubated with test article ([…]) for 30 min, and subsequently with LPS (1 μg/ml) for 18 hours.
The test articles were used at non-cytotoxic concentrations as a pre-treatment for 30 min before LPS-stimulation.

[3] = tested on: DNBS-induced colitis mice; assay: DNBS-induced colitis, body weight and colon weight/colon length ratio; format: in vivo, mouse
Method: (§2) Cannabigerol (CBG), cannabichromene (CBC) and tetrahydrocannabivarin (THCV) were dissolved in ethanol/Tween20/saline. Animals were placed in groups and administered with test article (60 μl per mouse) via IP once daily. Treatment started 3 days before DNBS administration for the preventative treatment experiments or 1 day after DNBS administration for the curative treatments. Test article was administered daily until the sacrifice of the animals, 3 days after DNBS treatment. THCV was only tested for a curative effect.
(§3) Colitis was induced in mice by the intra-colonic administration of DNBS. Briefly, mice were anesthetized and DNBS (8 mg/mouse) was inserted into the colon using a polyethylene catheter (1 mm in diameter) via the rectum (4.5 cm from the anus). Three days after DNBS administration, all animals were euthanized by asphyxiation with CO2. The abdomen was opened by a midline incision and the colon removed, isolated from surrounding tissues, opened along the anti-mesenteric border, rinsed, weighed, length measured, and processed for evaluations.
The colon weight/colon length ratio activity were determined as index of inflammation. Body weight was also evaluated.

[4] = tested on: inducible nitric oxide synthase (iNOS); assay: iNOS expression in full-thickness colons by western blot, DNBS-induced colitis; format: in vivo, mouse; conditions: DNBS-treated mice, FIG. 11
Method: as §2, §3
iNOS expression was measured in full-thickness colons from control and DNBS-treated mice by western blot analysis.

[5] = tested on: DNBS model of intestinal bowel disease in mice; conditions: cited from earlier work
[6] = post-treatment (curative), IP once daily from 1 day after DNBS
[7] = pre-treatment (preventative), IP once daily from 3 days before DNBS
[8] = treatment after induction of colitis (curative), IP once daily from 1 day after DNBS

| SMILES | cytotoxicity / cell viability [1] | LPS-stimulated nitrite levels [2] | colon weight:colon length ratio [3, 6] | body weight (decrease associated with the inflammatory response) [3, 7] | colon weight:colon length ratio [3, 7] | body weight (decrease associated with the inflammatory response) [3, 8] | level of expression of iNOS in colonic tissues [4] | anti-inflammatory effect in DNBS model [5] |
| --- | --- | --- | --- | --- | --- | --- | --- | --- |
| CCCCCc1cc(O)c2c(c1)OC(C)(CCC=C(C)C)C=C2 (centres unmarked) [CBC, Cannabichromene] | significantly reduced cell viability | reduce LPS-stimulated nitrite production | decrease in the colon weight:length ration however this was not as statistically significant | significant (p<0.05) prevention of the decrease in bodyweight | significant (p<0.05) reduction | did not however result in a decrease in body weight | did not show a reduction | – |
| C=C(C)[C@@H]1CCC(C)=C[C@H]1c1c(O)cc(CCCCC)cc1O [CBD, Cannabidiol] | – | – | – | – | – | – | – | anti-inflammatory effect |
| C=C(C)[C@@H]1CCC(C)=C[C@H]1c1c(O)cc(CCC)cc1O [CBDV, Cannabidivarin] | – | reduce LPS-stimulated nitrite production | – | – | – | – | – | – |
| CCCCCc1cc(O)c(C/C=C(\C)CCC=C(C)C)c(O)c1 [CBG, Cannabigerol] | – | significantly reduced; also recorded: reduce LPS-stimulated nitrite production | significant (p<0.05) reduction | highly statistically significant (p<0.001) prevention of the decrease in bodyweight | significant (p<0.05) reduction | did however not result in a decrease in body weight | statistically significantly (p<0.05) lower | – |
| CCCc1cc(O)c2c(c1)OC(C)(C)[C@@H]1CCC(C)=C[C@@H]21 [THCV, Tetrahydrocannabivarin] | significantly reduced cell viability | significantly reduced; also recorded: reduce LPS-stimulated nitrite production | significant (p<0.05) reduction | – | – | prevention of the decrease in bodyweight that is associated with the inflammatory response, however this decrease was not statistically significant | statistically significantly (p<0.001) lower | – |
